Each structure is given as a SMILES string. Like-named read-outs stand apart in the source and are kept apart here.

The test system of assay [1] is cellular lysyl oxidase (LOX) activity, MDA-MB-231 cells. The experiment in a line: Cell-based lysyl oxidase activity assay (Abcam kit). Details: species or system human. The text has this:
As the available LOX inhibitors are either not very potent or have toxicity, the inventors developed a robust screening pipeline shown in FIG. 28 to identify potent and safe LOX-specific and pan-LOX inhibitors. Briefly, a high-throughput cell-based LOX activity (Abcam) screen (HTS) was done for more than 5,000 drug-like compounds from the EXPRESS-Pick diversified library (4,480 molecules, ChemBridge) and Tocriscreen library of bioactive compounds (1,280 compounds, Tocris), each at a single concentration of 10 μM. […] The toxic molecules were counter screened with cell cytotoxicity assay and filtered out.
FIGS. 34. […] IC50 for cellular lysyl oxidase activity upon treatment of MDA-MB-231 cells with different LOX inhibitors. uM=microM.
For cell-based lysyl oxidase activity, fluorometric Lysly Oxidase Activity Assay Kit (Abcam, USA) was used according to manufacturer's instructions. Briefly, after the treatment, 50 μl of supernatant from each well was incubated with reagent mix and fluorescence measured in multimode-reader at Ex/Em=540/590 nm wavelength.

The next assay deals with MDA-MB-231 cells. Briefly: Migration assay (RTCA CIM plate). The class given is cell-based, human. As to conditions: 20 μM, 48 hours. The procedure:
FIG. 37. LOX inhibitors, 6232, 6403 and 6415, reduced the migration capacity of the TNBC cell lines. RTCA-CIM plate used to measure the real-time migration of MDA-MB-231 cells upon treatment with 20 μM of 6232, 6403 and 6415 for 48 hours. (* p<0.05; ** p<0.01)
RTCA CIM Plate was used to assess the migration capacity of the cells upon LOX inhibitor treatment according to manufacturer's instructions. Briefly, 160 μl of 10% FBS containing media was added into each bottom chamber/50 μl of FBS free media into upper chamber and incubated 1 hour at 37° C. After the background measurement, 5×10^4 cells were seeded in FBS-free media into upper chamber in the presence of LOX inhibitors or vehicle. After the 30 min incubation at RT, real time cell migration was recorded for 48 hours.

The target in another assay is T1, MAO-A (Homo sapiens, UniProt P21397).
T1 construct: purchased Active Motif, USA
T1 sequence (P21397 1-527): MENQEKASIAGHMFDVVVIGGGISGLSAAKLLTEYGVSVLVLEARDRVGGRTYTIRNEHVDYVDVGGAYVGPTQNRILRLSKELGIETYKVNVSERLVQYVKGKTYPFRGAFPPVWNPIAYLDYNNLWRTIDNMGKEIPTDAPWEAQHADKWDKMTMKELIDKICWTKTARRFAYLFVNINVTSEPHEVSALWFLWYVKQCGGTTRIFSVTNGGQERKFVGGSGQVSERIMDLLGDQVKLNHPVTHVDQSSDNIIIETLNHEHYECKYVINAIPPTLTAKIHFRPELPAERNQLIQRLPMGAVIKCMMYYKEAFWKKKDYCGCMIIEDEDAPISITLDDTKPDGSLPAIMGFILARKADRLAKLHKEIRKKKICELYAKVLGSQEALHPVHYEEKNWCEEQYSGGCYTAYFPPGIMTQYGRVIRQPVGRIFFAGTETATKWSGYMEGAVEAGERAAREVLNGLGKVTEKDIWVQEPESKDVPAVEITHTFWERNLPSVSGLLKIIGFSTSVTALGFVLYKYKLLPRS
Briefly: MAO-GLO assay. The class given is biochemical. The note with it: cell-free enzymatic activity assay. The procedure: (§1) MAO-GLO assay (Promega, USA) was used to measure the MAO-A and MAO-B activity upon LOX inhibitor treatment according to the manufacturer's instructions. For the enzyme activity, substrate was used at a concentration of 160 μM and 16 μM for MAO-A and MAO-B, respectively. MAO-A and MAO-B enzymes (Active Motif, USA) were used in 0.2 μg/per well. Reaction mix, enzymes, and drugs (30, 10, 3, 1, 0.3, and 0.1 nM) were mixed and incubated for 3 hours at RT. Then, 50 μl of luciferin was added into wells and incubated for 20 min at RT. Luciferase signals were measured by using a multimode reader.

The target in the next assay is T2, MAO-B (Homo sapiens, UniProt P27338).
T2 construct: purchased Active Motif, USA
T2 sequence (P27338 1-520): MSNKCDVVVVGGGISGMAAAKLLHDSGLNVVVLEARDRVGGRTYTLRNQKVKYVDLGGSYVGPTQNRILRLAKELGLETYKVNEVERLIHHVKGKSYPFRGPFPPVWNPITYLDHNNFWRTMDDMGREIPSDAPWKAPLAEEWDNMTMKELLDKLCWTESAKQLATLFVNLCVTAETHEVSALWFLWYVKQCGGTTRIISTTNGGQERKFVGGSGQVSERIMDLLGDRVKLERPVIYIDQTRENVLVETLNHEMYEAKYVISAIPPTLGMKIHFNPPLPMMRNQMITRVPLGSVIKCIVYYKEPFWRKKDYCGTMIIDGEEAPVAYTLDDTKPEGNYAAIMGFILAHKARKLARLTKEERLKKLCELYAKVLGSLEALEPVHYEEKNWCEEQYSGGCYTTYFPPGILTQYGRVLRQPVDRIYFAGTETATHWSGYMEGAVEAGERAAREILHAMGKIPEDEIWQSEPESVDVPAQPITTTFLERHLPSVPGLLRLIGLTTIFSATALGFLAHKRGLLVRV
Briefly: MAO-GLO assay. The class given is biochemical. As to conditions: cell-free enzymatic activity assay. The procedure: as §1

For assay [2], the system named is MDA-MB-231 cells embedded in collagen I. Briefly: ECM crosslinking by collagen and fibronectin immunofluorescence staining. The class given is cell-based, human. The procedure:
FIG. 31. […] A. Inhibition of LOX activity in MDA-MB-231 cells treated with 5 μM of the LOX inhibitors. B. Doxorubicin sensitization with 6232 and its analogs, 6403 and 6415, in 3D collagen-I culture. C. Collagen and fibronectin staining of vehicle or 6232 or 6403 or 6415-treated MDA-MB-231 cells embedded in collagen I. BAPN is used as a positive control.
Immunofluorescence staining of cells was done in μ-Slide 8-well glass bottom chambers (Ibidi, Germany). Cells were fixed with 4% paraformaldehyde for 20 min, permeabilized with 0.5% Triton X-100 for 10 min and blocked in 5% BSA-PBS. Samples were incubated with primary (Collagen I, Fibronectin, F-actin, a-SMA) and secondary Alexa Fluor 647 or 488-labeled antibodies for 1.5 hours at room temperature. Cells were also counterstained with DAPI for 5 min. Images were acquired using ZEN 2012 SP5 (Black) LSM 700 (Carl Zeiss, DE).

Setting [3] is: read-out: cellular LOX activity.

As for `Cc1nc(N)sc1-c1csc(N(C)c2ccc(O)cc2)n1` [compound 6415, 4-[[4-(2-amino-4-methyl-thiazol-5-yl)thiazol-2-yl]-methyl-amino]phenol], the “cellular lysyl oxidase inhibition compared to BAPN” value in assay [1] is “more potent”. Further, the IC50 in assay [1] (setting [3]) was 3.5 µM. Moreover, the migration capacity entry in the assay on MDA-MB-231 cells is reported as “inhibited the migration capacity”. In addition, the MAO-A activity inhibition result at MAO-A was “did not inhibit”. The MAO-B activity inhibition result at MAO-B is “did not inhibit”. Besides, the “ECM crosslinking (collagen and fibronectin staining)” value (shortened to “ECM crosslinking”) in assay [2] is on record as “decrease in ECM crosslinking”.

Consider `Cc1nc(N)sc1-c1csc(Nc2ccc([N+](=O)[O-])cc2)n1` [compound 6232, 4-methyl-5-[2-(4-nitroanilino)thiazol-4-yl]thiazol-2-amine], for which the “cellular lysyl oxidase inhibition compared to BAPN” value in assay [1] is on record as “more potent”. The migration capacity entry in the assay on MDA-MB-231 cells is listed as “inhibited the migration capacity”. In addition, on MAO-A, the MAO-A activity inhibition entry is reported as “did not inhibit”. Besides, the MAO-B activity inhibition entry at MAO-B was “did not inhibit”. The “ECM crosslinking” value in assay [2] is listed as “decrease in ECM crosslinking”.

On to `CC(=O)Nc1ccc(Nc2nc(-c3sc(N)nc3C)cs2)cc1` [compound 6403, N-[4-[[4-(2-amino-4-methyl-thiazol-5-yl)thiazol-2-yl]amino]phenyl]acetamide], for which the “cellular lysyl oxidase inhibition compared to BAPN” value in assay [1] is “more potent”. Moreover, the IC50 in assay [1] (read-out: IC50 for cellular lysyl oxidase inhibition) and in assay [1] (setting [3]) was 1.3 µM throughout. Further, in the assay on MDA-MB-231 cells, the migration capacity entry is “inhibited the migration capacity”. Besides, the MAO-A activity inhibition entry at MAO-A was “did not inhibit”. In addition, the MAO-B activity inhibition entry on MAO-B is on record as “did not inhibit”. For the same molecule, the “ECM crosslinking” value in assay [2] is recorded as “decrease in ECM crosslinking”.

These data come from US12642791B2, “Inhibitors of lysyl oxidases” (UNIVERSITY OF SOUTH CAROLINA, priority 2021, dated 2026).
